Results on 28 molecules are retold here after US20140206726A1 (priority 2011, published 2014).

A short description of data set [1]: Measurement of logP values by HPLC on reversed phase columns (EEC directive 79/831 Annex V.A8). In kind it is physicochemical. Particulars: for LogP: method [a]: pH 2,7, 0.1% formic acid in water / acetonitrile, linear gradient 10% to 95% acetonitrile. How it is done:
Measurement of logP values was performed according EEC directive 79/831 Annex V.A8 by HPLC (High Performance Liquid Chromatography) on reversed phase columns with the following methods:
^[a] Measurement of LC-MS was done at pH 2,7 with 0.1% formic acid in water and with acetonitrile (contains 0.1% formic acid) as eluent with a linear gradient from 10% acetonitrile to 95% acetonitrile.
Calibration was done with not branched alkan2-ones (with 3 to 16 carbon atoms) with known logP-values (measurement of logP values using retention times with linear interpolation between successive alkanones). lambda-maX-values were determined using UV-spectra from 200 nm to 400 nm and the peak values of the chromatographic signals.

The next data set relates to Phytophthora infestans. In kind it is in vivo. Particulars: tomato plants, preventive spray, 100 ppm of active ingredient, evaluated 7 days after inoculation.
Another data set concerns Plasmopara viticola. The data set can be described thus: Plasmopara test (grapevines) / preventive. As to conditions: grapevine plants, preventive spray, 10 ppm of active ingredient, evaluated 6 days after inoculation. The format is in vivo. How it is done:
Plasmopara Test (Grapevines)/Preventive
Solvent: 24.5 parts by weight of acetone • 24.5 parts by weight of dimethylacetamide
Emulsifier: 1 part by weight of alkylaryl polyglycol ether
To produce a suitable preparation of active compound, 1 part by weight of active compound is mixed with the stated amounts of solvent and emulsifier, and the concentrate is diluted with water to the desired concentration.
To test for preventive activity, young plants are sprayed with the preparation of active compound at the stated rate of application. After the spray coating has dried on, the plants are inoculated with an aqueous spore suspension of Plasmopara viticola and then remain for 1 day in an incubation cabinet at approximately 20° C. and a relative atmospheric humidity of 100%. The plant is subsequently placed for 4 days in a greenhouse at approximately 21° C. and a relative atmospheric humidity of approximately 90%.
The plants are then misted and placed for 1 day in an incubation cabinet.
The test is evaluated 6 days after the inoculation. 0% means an efficacy which corresponds to that of the untreated control, while an efficacy of 100% means that no disease is observed.

For the molecule `Cc1nnnn1C(=NOCc1csc(NC(=O)C2CC(c3ccccc3)=NO2)n1)c1ccccc1` (stereo not drawn) [Example 8], in data set [1], the LogP is 3.35^[a]. Further, in the data set on Phytophthora infestans, the Eff. % is 95%. `Cn1nnnc1C(=NOCc1csc(NC(=O)C2CC(c3cc(F)ccc3F)=NO2)n1)c1ccccc1` (stereo not drawn) [Example 17]: the LogP in data set [1] was 3.39^[a]. For the same molecule, the Eff. % in the data set with Phytophthora infestans was 95%.

Turning to `COc1ccc(C2=NOC(C(=O)Nc3nc(CON=C(c4ccccc4)c4nnnn4C)cs3)C2)cc1` (stereo not drawn) [Example 21], the LogP in data set [1] was 3.25^[a]. Moreover, in the data set with Phytophthora infestans, the Eff. % came to 85%.

Turning to `Cc1nnnn1C(=NOCc1csc(NC(=O)C2CC(c3cc(F)ccc3F)=NO2)n1)c1ccccc1` (stereo not drawn) [Example 24], the LogP in data set [1] was 3.46^[a]. The same molecule registered an Eff. % in the data set on Phytophthora infestans of 93%.

`CC1=NOC(C)(C(=O)Nc2cccc(CON=C(c3ccccc3)c3nnnn3C)n2)C1` (stereo not drawn) [Example 1]: the LogP in data set [1] was 2.84^[a].

In the case of `CC1=NOC(C(=O)Nc2nc(CON=C(c3ccccc3)c3nnnn3C)cs2)C1` (stereo not drawn) [Example 16], in data set [1], the LogP was 2.35^[a]. In addition, the Eff. % in the data set on Phytophthora infestans is recorded as 93%. For the molecule `CC1=NOC(C)(C(=O)Nc2nc(CON=C(c3ccccc3)n3nnnc3C)cs2)C1` (stereo not drawn) [Example 7], the LogP in data set [1] was 2.73^[a]. Consider `CCC1=NOC(C(=O)Nc2nc(CON=C(c3ccccc3)n3nnnc3C)cs2)C1` (stereo not drawn) [Example 26], for which the LogP in data set [1] was 2.68^[a].

On to `Cn1nnnc1C(=NOCc1csc(NC(=O)C2CC(c3ccccc3F)=NO2)n1)c1ccccc1` (stereo not drawn) [Example 11], for which the LogP in data set [1] is 3.29^[a]. This molecule also came in with an Eff. % in the data set on Phytophthora infestans of 95%. Turning to `Cn1nnnc1C(=NOCc1cccc(NC(=O)C2(C)CC(c3ccccc3)=NO2)n1)c1ccccc1` (stereo not drawn) [Example 5], the LogP in data set [1] is 3.87^[a]. Also, in the data set with Phytophthora infestans, the Eff. % amounted to 89%. Take `CC1=NOC(C(=O)Nc2nc(CON=C(c3ccccc3)n3nnnc3C)cs2)C1` (stereo not drawn) [Example 27]: the LogP in data set [1] is 2.42^[a]. In the case of `Cc1nnnn1C(=NOCc1csc(NC(=O)C2CC(c3ccccc3Cl)=NO2)n1)c1ccccc1` (stereo not drawn) [Example 28], in data set [1], the LogP was 3.55^[a]. Further, the Eff. % in the data set with Phytophthora infestans stood at 90%. As for `Cc1nnnn1C(=NOCc1cccc(NC(=O)C2CC(c3ccccc3F)=NO2)n1)c1ccccc1` (stereo not drawn) [Example 4], the LogP in data set [1] is 3.59^[a]. Besides, the Eff. % in the data set with Phytophthora infestans came out at 95%. Take `CC(C)C1=NOC(C(=O)Nc2nc(CON=C(c3ccccc3)c3nnnn3C)cs2)C1` (stereo not drawn) [Example 18]: the LogP in data set [1] was 2.92^[a]. Also, the Eff. % in the data set on Phytophthora infestans worked out at 93%. Regarding `CC1=NOC(C)(C(=O)Nc2nc(CON=C(c3ccccc3)c3nnnn3C)cs2)C1` (stereo not drawn) [Example 9], in data set [1], the LogP was 2.69^[a]. The same molecule gave an Eff. % in the data set with Phytophthora infestans of 85%. For orientation: chromatographic logP means a lipophilicity value derived from retention on a column. The molecule `Cn1nnnc1/C(=N\OCc1cccc(NC(=O)C2CC(c3ccccc3F)=NO2)n1)c1ccccc1` (stereo not drawn) [Example 3, 3-(2-fluorophenyl)-N-{6-[({[(Z)-(1-methyl-1H-tetrazol-5-yl)(phenyl)methylene]amino}oxy)methyl]pyridin-2-yl}-4,5-dihydro-1,2-oxazole-5-carboxamide] came in with a chromatographic logP in data set [1] (reversed phase HPLC columns, pH 2.7, HCOOH method, reported in preparation example) of 3.5. Further, the Eff. % with Phytophthora infestans is 93%; in the data set with Plasmopara viticola it was 74%. With `Cc1nnnn1C(=NOCc1cccc(NC(=O)C2(C)CC(c3ccccc3)=NO2)n1)c1ccccc1` (stereo not drawn) [Example 6], the LogP in data set [1] is 3.94^[a]. Also, the results for the Eff. % with Phytophthora infestans and in the data set on Plasmopara viticola were 95% and 85%, respectively. With `Cc1nnnn1C(=NOCc1csc(NC(=O)C2CC(C(C)C)=NO2)n1)c1ccccc1` (stereo not drawn) [Example 25], in data set [1], the LogP was 2.96^[a]. The Eff. % in the data set on Phytophthora infestans is given as 85%.

On to `Cc1nnnn1C(=NOCc1csc(NC(=O)C2CC(c3c(F)cccc3Cl)=NO2)n1)c1ccccc1` (stereo not drawn) [Example 22], for which the LogP in data set [1] is 3.48^[a]. The same molecule had an Eff. % with Phytophthora infestans of 90%. In the case of `Cn1nnnc1C(=NOCc1csc(NC(=O)C2(C)CC(c3ccccc3)=NO2)n1)c1ccccc1` (stereo not drawn) [Example 13], in data set [1], the LogP is 3.6^[a]. For the same molecule, the Eff. % in the data set with Phytophthora infestans came to 100%; in the data set on Plasmopara viticola, 97%.

For `Cc1nnnn1C(=NOCc1csc(NC(=O)C2CC(c3ccccc3F)=NO2)n1)c1ccccc1` (stereo not drawn) [Example 12], the LogP in data set [1] was 3.31^[a]. Further, the Eff. % in the data set on Phytophthora infestans came to 95%. With `Cn1nnnc1C(=NOCc1csc(NC(=O)C2CC(c3ccccc3)=NO2)n1)c1ccccc1` (stereo not drawn) [Example 10], the LogP in data set [1] was 3.31^[a]. In addition, the Eff. % in the data set on Phytophthora infestans is reported as 93%. As for `Cc1nnnn1C(=NOCc1csc(NC(=O)C2(C)CC(c3ccccc3)=NO2)n1)c1ccccc1` (stereo not drawn) [Example 14], the LogP in data set [1] is 3.64^[a]. The Eff. % in the data set on Phytophthora infestans came out at 95%; with Plasmopara viticola, 92%. With `Cn1nnnc1C(=NOCc1cccc(NC(=O)C2CC(c3ccccc3)=NO2)n1)c1ccccc1` (stereo not drawn) [Example 2], the LogP in data set [1] is 3.51^[a]. As to `Cn1nnnc1C(=NOCc1csc(NC(=O)C2CC(c3c(F)cccc3Cl)=NO2)n1)c1ccccc1` (stereo not drawn) [Example 20], the LogP in data set [1] was 3.44^[a]. This molecule displayed an Eff. % in the data set on Phytophthora infestans of 93%. As for `CCC1=NOC(C(=O)Nc2nc(CON=C(c3ccccc3)c3nnnn3C)cs2)C1` (stereo not drawn) [Example 19], the LogP in data set [1] is 2.64^[a]. Besides, the Eff. % in the data set with Phytophthora infestans worked out at 85%.

For `COc1ccc(C2=NOC(C(=O)Nc3nc(CON=C(c4ccccc4)n4nnnc4C)cs3)C2)cc1` (stereo not drawn) [Example 23], the LogP in data set [1] is 3.29^[a].

Turning to `Cn1nnnc1C(=NOCc1csc(NC(=O)C2CC(c3ccccc3Cl)=NO2)n1)c1ccccc1` (stereo not drawn) [Example 15], in data set [1], the LogP was 3.48^[a]. Also, the Eff. % in the data set with Phytophthora infestans turned out to be 90%.
